Assays:
Gal-1 = Gal-1 (Homo sapiens, UniProt P09382); assay: Gal-1 inhibition binding, indirect ELISA (Gal-1-HRP conjugate on asialofetuin-coated wells)
Method: Cell. Biochem., 43, 43-57, 1990) to eliminate the thiol requirement for retention of carbohydrate-binding activity. Coupling of alkylated galaptin to Horseradish peroxidase (HRP) was carried out by a two-step glutaraldehyde procedure as described by Engvall (Engvall E., Enzyme Immunoassay ELISA and EMIT, Methods in Enzymology, 70, 419-439, 1980). The galactin-peroxidase conjugate was prepared in 50% glycerol-1% BSA and stored at -20° C. until use. The binding of the Gal-1 to photosensitizers with and without the galactose moiety was measured by an indirect ELISA method as described by Chen et al. […] The microtiter wells (Dynatech Laboratories, Chantilly, Va.) were coated with 2 μg asial fetuin (Sigma) in 100 μl of 0.1M sodium carbonate, 0.2% NaN3, pH 9.6 at 37° C. for 3h. The plates were tightly covered with parafilm and stored at 4° C. for use within three weeks. The optimal dilution for Gal-1HRP conjugate was determined by checker-board titration. For studying the effect of saccharides and their conjugates, 60 μl aliquots of diluted Gal-1-HRP conjugate containing 1.4 μg of Gal-1 were mixed separately in duplicate with 60 μl dilute buffer as well as serially diluted test compounds and incubated for 1 h at 37° C. A 100 μl aliquot was transferred to the microtiter wells, which had been coated with […] Fetuin, blocked and washed. The plates were then incubated for 1 h at 37° C. followed by color development with ABTS (Kirkegaard & Perry lab. Gaithersburg, Md.) and reading at 405 nm on an ELISA reader.

[1] = system: radiation induced fibrosarcoma (RIF) tumor cell; assay: In vitro photosensitizing activity in RIF tumor cells (MTT); format: cell-based; conditions: 2.0 μM, light dose of 4 J/cm2
Method: Both cell lines are known to have some expression for Galectin-1 (Sacchettini, J. C., Baum, L. G. and Brewer, C. F., Multivalent Protein-carbohydrate Interactions. A New Paradiagm for Super Molecular Assembly and Signal Transduction, Biochemistry, 40:3009-3015, 2001). The Molt-4 cells were grown in RPMI 1640 5% FCS (Fetal calf serum) in 100% humidity with 5% CO2. Cells were transferred to phenol red free (PRF) RPMI 1640 media with 1% FCS and plated at 2.5×10^4 cells/well. After 3 hours incubation in the dark, the cells were washed once with PBS and re-suspended in prf RPMI 1640 with 1% FCS. These cells were then illuminated with a 1000W Quartz Halogen Lamp with IR and bandpass dichroic filters to allow light between 400 nm-700 nm, at a dose rate of 16 mW/cm^2 at 695 nm. The RIF tumor cells were grown in alpha-DMEM with 10% fetal calf serum, penicillin and streptomycin. Cells were maintained in 5% CO2, 95% air and 100% humidity. For determining the PDT efficacy, these cells were plated in 96-well plates and a density of 1×10^4 cells well in complete media. After overnight incubation to allow the cells to attach the photosensitizers 14 were individually added at variable concentrations. After a 3 hr incubation in the dark at 37° C., the cells were washed once with PBS, then irradiated with the same light source as above (Molt-4 procedure), and the optimal cell kill was obtained at a concentration of 1.0 μM. After PDT the cells were washed once and placed in complete media and incubated for 48 hrs. […] The 96-well plate was read on a microtiter plate reader (Miles Inc. Titertek Multiscan Plus MK II) at an absorbance of 560 nm. […]

[2] = system: Molt-4 human leukemic T-cells; assay: In vitro photosensitizing efficacy in Molt-4 cells (MTT); format: cell-based; conditions: for effect of the free saccharide on PDT activity of the conjugate: Molt-4 cells incubated with galactose or lactose at various concentrations (0-100 μM)
Method: Both cell lines are known to have some expression for Galectin-1 ([…]., Baum, L. G. and Brewer, C. F., Multivalent Protein-carbohydrate Interactions. A New […] for Super Molecular Assembly and Signal Transduction, Biochemistry, 40:3009-3015, 2001). The Molt-4 cells were grown in RPMI 1640 5% FCS (Fetal calf serum) in 100% humidity with 5% CO2. Cells were transferred to phenol red free (PRF) RPMI 1640 media with 1% FCS and plated at 2.5×10^4 cells/well. After 3 hours incubation in the dark, the cells were washed once with PBS and re-suspended in prf RPMI 1640 with 1% FCS. These cells were then illuminated with a […] Quartz Halogen Lamp with IR and bandpass dichroic filters to allow light between 400 nm-700 nm, at a dose rate of 16 mW/cm^2 at 695 nm. The RIF tumor cells were grown in alpha-DMEM with 10% fetal calf serum, penicillin and streptomycin. Cells were maintained in 5% CO2, 95% air and 100% humidity. […] After overnight incubation to allow the cells to attach the photosensitizers 14 were individually added at variable concentrations. After a 3 hr incubation in the dark at 37° C., the cells were washed once with PBS, then irradiated with the same light source as above (Molt-4 procedure), and the optimal cell kill was obtained at a concentration of 1.0 μM. After PDT the cells were washed once and placed in complete media and incubated for 48 hrs. […] Louis, Mo.) was added to each well (Kessel, D., Luo, Y., Photodynamic Therapy: A Mitochondrial Inducer of Apoptosis, Cell Death Differ. 6:28-35, 1999; MacDonald, I., Morgan, […]., Litchfield, D. J. Dougherty, T. J., Subcellular Localization Patterns and their Relationship to Photodynamic Activity of Pyropheophorbide-a Derivatives, Photochem. Photobiol., 70, 789-997, 1999). After 4 hr incubation at 37° C. the MTT+media were removed and 100 μl DMSO was added to solubilize the formazin crystals. The 96-well plate was read on a microtiter plate reader (Miles Inc. Titertek Multiscan Plus MK II) at an absorbance of 560 nm. The results were plotted as percent survival of the corresponding dark (drug no light) control for each compound tested. Each data point represents the mean from 3 separate experiments, and the error bars are the standard deviation. Each experiment was done with 5 replicate wells. […] The cells were then washed once with phosphate buffer saline (PBS), carbohydrate conjugates were then added, and the cells were again incubated for an additional 3 hrs. After treating with light, the cells were re-suspended in fresh media and incubated for 48 hrs. MTT was added to the cells and incubated for an additional 4 hrs. Dimethylsulfoxide (100 μl) was then added to each well to dissolve the formazin crystals. The plates were read on a 96 well plate reader at an absorbance of 560 nm. The data are in replicates of 6 wells and are normalized to control cells (light, no drug). In another set of experiments, a similar procedure was followed, except, the cells were not washed before the light treatment. […] Louis, Mo.) was added to the cells and incubated for an additional 4 hrs. Dimethylsulfoxide (100 μl) was then added to each well to dissolve the formazin crystals. The plates were read on a 96 well plate reader (Miles Inc. Titertek Multiscan Plus MK II) at an absorbance of 560 nm. The data are in replicates of 6 wells and are normalized to control cells (light, no drug).

Chain of Gal-1 (P09382 whole entry): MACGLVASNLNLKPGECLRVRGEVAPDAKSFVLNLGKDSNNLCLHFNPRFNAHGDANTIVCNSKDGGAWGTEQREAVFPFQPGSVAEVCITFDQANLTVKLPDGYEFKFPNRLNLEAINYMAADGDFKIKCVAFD

IC50 (Gal-1; ELISA, read-out: I50, inhibition of Gal-1 binding) [µM] | inhibition at 450 µM (Gal-1; at 450 μM) [%] | inhibition of Gal-1 binding (Gal-1; at 450 μM) [%] | SMILES | cell kill [1] [%] | in vitro photosensitizing efficacy (in words) ([2]; Molt-4 cells, 2.0 μM, 2a, 3a compared to 1a, 4a compared to 2a and 3a) | effect of free lactose on PDT efficacy of the photosensitizer ([2]; Molt-4 cells, photosensitizer with lactose in a ratio of 1:100, without washing) | effect of the free saccharide on PDT activity of the conjugate [2]
114 | – | – | C=C(C=CCO[C@@H]1O[C@H](CO)[C@H](O)[C@H](O)[C@H]1O)CN1C(=O)c2c3nc(cc4[nH]c(cc5nc(cc6[nH]c2c(c6C)C1=O)C(CC)=C5C)c(CC)c4C)C(C)C3CCC(=O)OC (mixture of isomers) [2a, Galactose-Chlorin conjugate Joined with diene linkage] | 100 | significant increases in photosensitizing efficacy | complete inhibition in PDT efficacy | –
– | 3 | 3.29 | O=C[C@H](O)[C@@H](O)[C@@H](O)[C@H](O)CO [galactose, reference compound] | – | – | – | did not result in any inhibition in PDT activity
– | – | – | OC[C@H]1O[C@@H](O[C@H]2[C@H](O)[C@@H](O)C(O)O[C@@H]2CO)[C@H](O)[C@@H](O)[C@H]1O (some centres unmarked) [lactose, reference compound] | – | – | – | significant decrease in photosensitizing efficacy
